# Results: patent publication US5863893A, “Factor VIIa inhibitors from kunitz domain proteins” (Genentech, Inc., priority 1995, dated 1999)
# Key:
# [1] = test system: normal human plasma; assay: Activated partial thromboplastin time (APTT) assay; type: biochemical
# Method: For the activated partial thromboplastin time (APTT) assays, the activation time was set at 120 sec and acquisition time at 300 to 600 sec depending on the expected outcome of the assay. Citrated normal human plasma and inhibitor were incubated together. The sample (plasma and inhibitor) and activator (Instrumentation Laboratories Ellagic acid/Phospholipid mix Test Reagent) were automatically pipetted and incubated together for 2 min at 37° C., then CaCl2 was added and clotting time determined by means of optical assessment. The total incubation time of inhibitor with plasma was ca. 3 min before addition of activator, and 5 min before addition of CaCl2.
# [2] = test system: rabbit plasma; assay: PT clotting time in rabbit plasma; type: biochemical; conditions: 40 μM, rabbit thromboplastin diluted two-fold
# Method: Samples of rabbit plasma were assayed using an MLA 800 coagulometer and Dade reagents. Actin FS® was the activator in the APTT assay. Rabbit Thromboplastin with Ca++ was used for the PT assays; the rabbit thromboplastin was diluted two-fold. All mutant inhibitors tested prolonged clotting by at least one fold. […] A greater than 10 fold prolongation of the clotting time at 40 μM was observed.
# [3] = test system: New Zealand white rabbits; assay: Rabbit deep medial injury model (carotid artery patency and thrombus weight); type: in vivo; conditions: for Clot (mgs): mean ±sem
# Method: Male New Zealand white rabbits (~4 kg) were anesthetized to surgical anesthesia plane with an IM injection of Ketamine/Xylaxine. The rabbits were placed supine on a restraining board, warmed to 37° C., and the neck and inner thigh area shaved. Teflon catheters were replaced in a marginal ear vein and femoral artery for drug delivery and sample collection respectively. Prior to treatment, blood samples were collected for coagulation tests (APTT and PT). Bleeding time was assessed from a cut made in the cuticle portion of a hind limb nail. Incisions were made in the neck region and the entire left common carotid artery and its branches were surgically isolated. An ultrasonic flow probe (Transonics®) was placed on the common carotid approximately 5 cm caudal to the common-internal bifurcation. After blood flow reached a stable baseline, drugs (saline or test compounds) were delivered via the marginal ear vein. A deflated embolectomy catheter (Fogarty®, 3F) was then introduced into the lumen of the common via an incision in the lingual branch. Blood flow through the artery was stopped briefly while the catheter was introduced and loosely secured with 2-0 silk tie at the incision site. After the catheter was in place and secure, blood flow was restored. The deflated balloon was advanced to within 2 mm of the flow probe and inflated with saline until resistance of the vessel wall was felt. The catheter was pulled back with a steady motion to the first branch and then deflated. This procedure was repeated a total of six times for each experimental animal, after which the catheter was removed. […] Over 40 minutes, blood samples were taken for APTT and PT measurements, cuticle bleeding times were assessed and blood flow through the carotid monitored. Duration of patency was defined as the total amount of time (maximum=40 minutes) that any measurable blood flow is detected in the artery. Patency rate refers to the percentage of animals tested who had carotid artery blood flow ≥5 minutes. At the end of the experiment the rabbit was euthanized and the carotid artery removed and opened. If any thrombus was present, it was removed, blotted and the weight recorded.
# [Heparin was dosed as a 25 u/kg bolus followed by a continuous infusion of 1) 0.5 u/kg/min or 2) 1 u/kg/min. Other reagents were given as a 2 mg/kg IV bolus. With the exception of the patency data, values are expressed as means ±sem.]
# [4] = test system: TF-induced coagulation; conditions: cited from earlier work
# [5] = target: TF-FVIIa (Homo sapiens, UniProt P08709); conditions: read-out: Ki, competitive inhibition of TF-FVIIa activity; cited from earlier work
# Sequence of TF-FVIIa (P08709 213-466 limits assumed): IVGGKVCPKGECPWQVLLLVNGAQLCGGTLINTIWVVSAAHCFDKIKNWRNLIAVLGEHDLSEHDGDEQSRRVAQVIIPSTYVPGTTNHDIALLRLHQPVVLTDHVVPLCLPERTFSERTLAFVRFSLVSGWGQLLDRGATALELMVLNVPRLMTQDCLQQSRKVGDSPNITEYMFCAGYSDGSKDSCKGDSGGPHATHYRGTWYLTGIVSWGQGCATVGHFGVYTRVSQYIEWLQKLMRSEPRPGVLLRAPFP
# Sequence of TF-FVIIa (P08709 61-212 limits assumed): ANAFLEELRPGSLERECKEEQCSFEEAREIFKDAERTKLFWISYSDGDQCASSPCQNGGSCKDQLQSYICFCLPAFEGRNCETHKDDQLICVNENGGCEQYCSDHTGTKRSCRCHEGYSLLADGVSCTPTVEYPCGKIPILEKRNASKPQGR
# Sequence of TF-FVIIa (P13726 33-295 partner): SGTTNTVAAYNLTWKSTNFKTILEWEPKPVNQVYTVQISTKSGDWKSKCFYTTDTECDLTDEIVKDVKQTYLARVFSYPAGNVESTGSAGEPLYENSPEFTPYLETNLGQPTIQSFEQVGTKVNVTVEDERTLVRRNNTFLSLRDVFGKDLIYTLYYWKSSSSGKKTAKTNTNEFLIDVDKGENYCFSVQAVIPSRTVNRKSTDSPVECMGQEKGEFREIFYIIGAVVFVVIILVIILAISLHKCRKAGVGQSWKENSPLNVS
# [6] = 25 u/kg bolus then continuous infusion 0.5 u/kg/min
# [7] = 25 u/kg bolus then continuous infusion 1 u/kg/min
substance,measurement,setting,value
Alzheimer's amyloid β-protein precursor inhibitor (VREVCSEQAETGPCRAMISRWYFDVTEGKCAPFFYGGCGGNRNNFDTEEYCMAVCGSA) [APPI],"APTT clotting time, fold prolongation","[1]; 40 μM inhibitor, uninhibited clotting time 31 s",3.6 fold
same,"APTT clotting time, fold prolongation",[1]; ca. 7 μM inhibitor,ca. 3 fold
same,"PT, fold increase over baseline",[2],1.4 fold
same,Patency (%),"[3]; 2 mg/kg IV bolus, animals with carotid artery blood flow ≥5 minutes",40%
same,Clot (mgs),"[3]; 2 mg/kg IV bolus, thrombus weight",49.5 ± 18.2 mgs
Heparin,Patency (%),[3]; [6],67%
same,Clot (mgs),[3]; [6],13.6 ± 4.7 mgs
same,Patency (%),[3]; [7],100%
same,Clot (mgs),[3]; [7],19.1 ± 8.5 mgs
same,patency and clot size compared to the saline control (in words),[3]; doses as in Table III,significantly prolonged patency and reduced clot size
Bovine pancreatic trypsin inhibitor [BPTI],concentration needed to prolong the clotting time 1.4-fold in a PT assay,[4],ca. 75 pM
same,Ki,[5],30 µM
